Measurements published in US11702404B2, “GLP-1R modulating compounds” (priority 2019, dated 2023).
Read-outs that look alike come from different tables or passages of the source.

How the values were obtained:
GLP-1R = GLP-1R (Homo sapiens, UniProt P43220); experiment: GLP-1R activation: cAMP increase in CHO cells stably expressing GLP-1R; type: cell-based
[1] = Microsomal stability, human liver microsomes (predicted hepatic clearance); details: predicted from in vitro microsomal stability data
[2] = cAMP increase, CHO cells stably expressing GLP-1R, 10 point dose response, 30 minutes incubation, read-out: EC50

GLP-1R, sequence (P43220 24-463): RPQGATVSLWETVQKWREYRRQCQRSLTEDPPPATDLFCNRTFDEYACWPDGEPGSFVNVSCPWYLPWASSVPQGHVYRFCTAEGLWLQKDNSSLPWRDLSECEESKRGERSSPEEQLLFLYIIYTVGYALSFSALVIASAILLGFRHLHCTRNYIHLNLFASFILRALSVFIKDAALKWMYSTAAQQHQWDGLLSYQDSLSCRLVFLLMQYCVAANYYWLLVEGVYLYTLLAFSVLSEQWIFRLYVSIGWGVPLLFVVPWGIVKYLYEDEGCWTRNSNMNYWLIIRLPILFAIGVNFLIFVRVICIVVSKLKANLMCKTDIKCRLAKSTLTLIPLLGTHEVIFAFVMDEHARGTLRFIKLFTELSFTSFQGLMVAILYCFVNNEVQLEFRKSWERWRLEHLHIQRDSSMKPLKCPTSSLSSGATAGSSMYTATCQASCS

Row | SMILES | EC50 (GLP-1R; [2]) [nM] | Predicted Hepatic Clearance (Pred. Cl.) [1] [mL/min/kg] | EC50 (GLP-1R; EC50 (nM)) [nM] | EC50 (GLP-1R; read-out: EC50) [nM]
1 | COC[C@H](c1ccccc1)n1c(Cc2cc(F)c(-c3cccc(OCc4ccc(C#N)cc4F)n3)cc2F)nc2ccc(C(=O)O)cc21 [Example 717] | 41.5 | 7.5 |  | 
2 | N#CCC1(Cn2c(Cc3cc(F)c(-c4cccc(OCc5ccc(C(F)F)cc5F)n4)cc3F)nc3ccc(C(=O)O)cc32)CC1 [Example 718] | 0.05 | 1.83 |  | 
3 | O=C(O)c1ccc2nc(Cc3cc(F)c(-c4cccc(OCc5ccc(C(F)F)cc5F)n4)cc3F)n(CC3(CF)CC3)c2c1 [Example 719] | 0.37 | 1.83 |  | 
4 | N#Cc1ccc(COc2cccc(-c3cc(F)c(Cc4nc5ccc(C(=O)O)cc5n4[C@@H]4C[C@H]4C(F)F)cc3F)n2)c(F)c1 [Example 720] | 27.8 | 5.33 |  | 
5 | CC(C)(Cn1c(Cc2cc(F)c(-c3cccc(OCc4ccc(C#N)cc4F)n3)cc2F)nc2ccc(C(=O)O)cc21)OC(F)F [Example 721] | 1.31 | 7.83 |  | 
6 | C[C@H](O)Cn1c(Cc2cc(F)c(-c3cccc(OCc4ccc(C#N)cc4F)n3)cc2F)nc2ccc(C(=O)O)cc21 [Example 723] |  | 3.5 | 5.19 | 
7 | C[C@@H](O)Cn1c(Cc2cc(F)c(-c3cccc(OCc4ccc(C#N)cc4F)n3)cc2F)nc2ccc(C(=O)O)cc21 [Example 724] |  | 6.67 | 15.1 | 
8 | CO[C@@H]1CCCC[C@@H]1n1c(Cc2cc(F)c(-c3cccc(OCc4ccc(C#N)cc4F)n3)cc2F)nc2ccc(C(=O)O)cc21 [Example 725] | 3.68 | 9.5 |  | 
9 | COC[C@@H](CF)n1c(Cc2cc(F)c(-c3cccc(OCc4ccc(C#N)cc4F)n3)cc2F)nc2ccc(C(=O)O)cc21 [Example 726] | 7.26 | 5.5 |  | 
10 | COC[C@H](CF)n1c(Cc2cc(F)c(-c3cccc(OCc4ccc(C#N)cc4F)n3)cc2F)nc2ccc(C(=O)O)cc21 [Example 727] | 46.3 | 5.5 |  | 
11 | N#Cc1ccc(COc2cccc(-c3cc(F)c(Cc4nc5ccc(C(=O)O)cc5n4C4CC5(COC5)C4)cc3F)n2)c(F)c1 [Example 728] | 93.6 | 8.33 |  | 
12 | N#Cc1ccc(COc2cccc(-c3cc(F)c(Cc4nc5ccc(C(=O)O)cc5n4CC4(F)CC4)cc3F)n2)c(F)c1 [Example 729] | 1.03 | 1.83 |  | 
13 | N#Cc1ccc(COc2cccc(-c3cc(F)c(Cc4nc5ccc(C(=O)O)cc5n4CC4(COC(F)F)CC4)cc3F)n2)c(F)c1 [Example 730] | 0.98 | 1.83 |  | 
14 | COC[C@H]1C[C@H](n2c(Cc3cc(F)c(-c4cccc(OCc5ccc(C#N)cc5F)n4)cc3F)nc3ccc(C(=O)O)cc32)C1 [Example 731] | 290 | 10.3 |  | 
15 | COCC(COC)n1c(Cc2cc(F)c(-c3cccc(OCc4ccc(C#N)cc4F)n3)cc2F)nc2ccc(C(=O)O)cc21 [Example 732] | 169 | 8.17 |  | 
16 | N#Cc1ccc(COc2cccc(-c3cc(F)c(Cc4nc5ccc(C(=O)O)cc5n4CC4(O)CC4)cc3F)n2)c(F)c1 [Example 733] | 2.47 | 3.83 |  | 
17 | COC[C@H]1C[C@@H](n2c(Cc3cc(F)c(-c4cccc(OCc5ccc(C#N)cc5F)n4)cc3F)nc3ccc(C(=O)O)cc32)C1 [Example 734] | 168 | 8 |  | 
18 | CS(=O)(=O)N1CCC[C@@H]1Cn1c(Cc2cc(F)c(-c3cccc(OCc4ccc(C#N)cc4F)n3)cc2F)nc2ccc(C(=O)O)cc21 [Example 735] |  | 7.17 |  | 1.7
19 | N#Cc1ccc(COc2cccc(-c3cc(F)c(Cc4nc5ccc(C(=O)O)cc5n4CC45CC(C4)C(C(F)(F)F)O5)cc3F)n2)c(F)c1 (stereo not shown) [Example 737] | 1.89 | 1.83 |  | 
20 | N#Cc1ccc(COc2cccc(-c3cc(F)c(Cc4nc5ccc(C(=O)O)cc5n4CC45CCC(CO4)C5)cc3F)n2)c(F)c1 (stereo not shown) [Example 738] | 1.87 | 9.33 |  | 
21 | COCCC1(Cn2c(Cc3cc(F)c(-c4cccc(OCc5ccc(C#N)cc5F)n4)cc3F)nc3ccc(C(=O)O)cc32)CC1 [Example 739] | 0.74 | 1.83 |  | 
22 | N#Cc1ccc(COc2cccc(-c3cc(F)c(Cc4nc5ccc(C(=O)O)cc5n4CC4CC5CCN4CC5)cc3F)n2)c(F)c1 (stereo not shown) [Example 740] |  | 2.17 |  | 1160
23 | N#Cc1ccc(COc2cccc(-c3cc(F)c(Cc4nc5ccc(C(=O)O)cc5n4CC45CCN(CC4)C5)cc3F)n2)c(F)c1 [Example 742] | 54.8 | 1.83 |  | 
24 | COCC1(Cn2c(Cc3cc(F)c(-c4cccc(OCc5ccc(C#N)cc5F)n4)cc3F)nc3ccc(C(=O)O)cc32)CCC1 [Example 743] | 2.48 | 6.67 |  | 

Row | SMILES | EC50 (GLP-1R; [2]) [nM] | Predicted Hepatic Clearance (Pred. Cl.) [1] [mL/min/kg] | EC50 (GLP-1R; EC50 (nM)) [nM] | EC50 (GLP-1R; read-out: EC50) [nM]
25 | CO[C@H]1C[C@@H](Cn2c(Cc3cc(F)c(-c4cccc(OCc5ccc(C#N)cc5F)n4)cc3F)nc3ccc(C(=O)O)cc32)C1 [Example 744] | 10.6 | 1.83 |  | 
26 | CO[C@H]1C[C@H](Cn2c(Cc3cc(F)c(-c4cccc(OCc5ccc(C#N)cc5F)n4)cc3F)nc3ccc(C(=O)O)cc32)C1 [Example 745] | 83.5 | 1.83 |  | 
27 | COC1(Cn2c(Cc3cc(F)c(-c4cccc(OCc5ccc(C#N)cc5F)n4)cc3F)nc3ccc(C(=O)O)cc32)CC1 [Example 746] | 0.87 | 5 |  | 
28 | COC1(Cn2c(Cc3cc(F)c(-c4cccc(OCc5ccc(C#N)cc5F)n4)cc3F)nc3ccc(C(=O)O)cc32)CCC1 [Example 747] | 0.81 | 7.33 |  | 
29 | Cc1nnc(Cn2c(Cc3cc(F)c(-c4cccc(OCc5ccc(C#N)cc5F)n4)cc3F)nc3ccc(C(=O)O)cc32)o1 [Example 748] | 1320 | 1.83 |  | 
30 | O=C(O)c1ccc2nc(Cc3c(F)cc(-c4cccc(OCc5ccc(C(F)F)cc5F)n4)c(F)c3F)n(Cc3ncco3)c2c1 [Example 749] | 0.33 | 4.33 |  | 
31 | COCCn1c(Cc2c(F)cc(-c3cccc(OCc4ccc(C(F)F)cc4F)n3)c(F)c2F)nc2ccc(C(=O)O)cc21 [Example 750] | 1.26 | 4.17 |  | 
32 | N#CCC1(Cn2c(Cc3cc(F)c(-c4ccnc(OCc5ccc(C(F)F)cc5F)n4)cc3F)nc3ccc(C(=O)O)cc32)CC1 [Example 751] | 0.19 | 7.17 |  | 
33 | COCCn1c(Cc2cc(F)c(-c3ccc(F)c(OCc4ccc(C(F)F)cc4F)n3)cc2F)nc2ccc(C(=O)O)cc21 [Example 752] | 0.51 | 1.83 |  | 
34 | COCCn1c(Cc2cc(F)c(-c3cccc(OCc4ccc(C#N)cc4F)n3)cc2CO)nc2ccc(C(=O)O)cc21 [Example 753] | 0.74 | 10.3 |  | 
35 | O=C(O)c1ccc2nc(Cc3cc(F)c(-c4nccc(OCc5ccc(C(F)(F)F)cc5F)n4)cc3F)n(C[C@@H]3CCO3)c2c1 [Example 754] | 0.15 | 6 |  | 
36 | N#Cc1cc(F)c(COc2ccnc(-c3cc(F)c(Cc4nc5ccc(C(=O)O)cc5n4C[C@@H]4CCO4)cc3F)n2)cc1F [Example 755] | 0.42 | 9.83 |  | 
37 | O=C(O)c1ccc2nc(Cc3c(F)cc(-c4cccc(OCc5ccc(C(F)F)cc5F)n4)c(F)c3F)n(CC34CC(CO3)C4)c2c1 [Example 756] | 1.42 | 7.67 |  | 
38 | O=C(O)c1ccc2nc(Cc3c(F)cc(-c4cccc(OCc5ccc(C(F)F)cc5F)n4)c(F)c3F)n(C[C@@H]3CCO3)c2c1 [Example 758] | 0.03 | 4.5 |  | 
39 | O=C(O)c1ccc2nc(Cc3cc(F)c(-c4cccc(OCc5ccc(Cl)nc5OC(F)F)n4)cc3F)n(C[C@@H]3CCO3)c2c1 [Example 759] | 0.64 | 1.83 |  | 
40 | N#Cc1ccc(COc2ccc(F)c(-c3cc(F)c(Cc4nc5c(F)cc(C(=O)O)cc5n4CC4(CF)CC4)cc3F)n2)c(F)c1 [Example 760] | 0.26 | 6.5 |  | 
41 | COCCn1c(Cc2cc(F)c(-c3ccc(F)c(OCc4ccc(C(F)(F)F)cc4F)n3)cc2F)nc2c(F)cc(C(=O)O)cc21 [Example 761] | 0.51 | 1.83 |  | 
42 | COCCn1c(Cc2cc(F)c(-c3ccc(F)c(OCc4ccc(C(F)F)cc4F)n3)cc2F)nc2c(F)cc(C(=O)O)cc21 [Example 762] | 0.9 | 1.83 |  | 
43 | COCCn1c(Cc2cc(F)c(-c3ccc(F)c(OCc4ccc(C#N)cc4F)n3)cc2F)nc2c(F)cc(C(=O)O)cc21 [Example 764] | 0.76 | 3.17 |  | 
44 | O=C(O)c1cc(F)c2nc(Cc3cc(F)c(-c4ccc(F)c(OCc5ccc(C(F)(F)F)cc5F)n4)cc3F)n(C[C@@H]3CCO3)c2c1 [Example 765] | 0.51 | 1.83 |  | 
45 | N#Cc1cc(F)c(COc2nc(-c3cc(F)c(Cc4nc5c(F)cc(C(=O)O)cc5n4C[C@@H]4CCO4)cc3F)ccc2F)cc1F [Example 766] | 0.13 | 3 |  | 
46 | O=C(O)c1cc(F)c2nc(Cc3cc(F)c(-c4ccc(F)c(OCc5ccc(C(F)F)cc5F)n4)cc3F)n(C[C@@H]3CCO3)c2c1 [Example 767] | 0.51 | 1.83 |  | 
47 | N#Cc1ccc(COc2nc(-c3cc(F)c(Cc4nc5c(F)cc(C(=O)O)cc5n4C[C@@H]4CCO4)cc3F)ccc2F)c(F)c1 [Example 768] | 0.04 | 2.75 |  | 
